Assay results from ChEMBL document CHEMBL3872201, “Synthesis and antiproliferative activity of a natural like glycoconjugate polycyclic compound” (2016).
Active and inactive are the calls of the source. The rule behind the calls is not given here.

Key:
[1] = Antiproliferative activity against human SR cells after 48 hrs by sulforhodamine B assay; assay type: functional
[2] = Antiproliferative activity against human TK10 cells after 48 hrs by sulforhodamine B assay; assay type: functional; details: TK-10, 48 h
[3] = Antiproliferative activity against human UACC62 cells after 48 hrs by sulforhodamine B assay; assay type: functional; details: UACC-62, 48 h
[4] = Antiproliferative activity against human BT549 cells after 48 hrs by sulforhodamine B assay; assay type: functional; details: BT-549, 48 h
[5] = Antiproliferative activity against human SKOV3 cells after 48 hrs by sulforhodamine B assay; assay type: functional; details: SK-OV-3, 48 h
[6] = Cell cycle arrest in human MDA-MB-231 cells assessed as accumulation at subG0/G1 phase at 10 uM after 72 hrs by propidium iodide staining based flow cytometric analysis (reference value: 6.3%); assay type: functional
[7] = Antiproliferative activity against human HOP62 cells after 48 hrs by sulforhodamine B assay; assay type: functional; details: HOP-62, 48 h
[8] = Antiproliferative activity against human UO31 cells after 48 hrs by sulforhodamine B assay; assay type: functional; details: UO-31, 48 h
[9] = test system: MDA-MB-231; test: Effect on cell cycle regulatory protein in human MDA-MB-231 cells assessed as cyclin B1 level at 5 uM after 48 hrs by Western blot analysis relative to control; assay type: functional
[10] = test system: MDA-MB-231; test: Effect on cell cycle regulatory protein in human MDA-MB-231 cells assessed as cdc2 level at 10 uM after 24 hrs by Western blot analysis relative to control; assay type: functional
[11] = Antiproliferative activity against human RXF393 cells after 48 hrs by sulforhodamine B assay; assay type: functional; details: RXF 393, 48 h
[12] = test system: MDA-MB-231; test: Effect on cell cycle regulatory protein in human MDA-MB-231 cells assessed as cyclin B1 level at 10 uM after 24 hrs by Western blot analysis relative to control; assay type: functional
[13] = Cell cycle arrest in human MDA-MB-231 cells assessed as cell enlargement at 5 to 10 uM after 8 days by light microscopic analysis; assay type: functional, cell-based
[14] = test system: MDA-MB-231; test: Effect on cell cycle regulatory protein in human MDA-MB-231 cells assessed as p21 level at 10 uM after 48 hrs by Western blot analysis relative to control; assay type: functional
[15] = Antiproliferative activity against human RPMI8226 cells after 48 hrs by sulforhodamine B assay; assay type: functional; details: RPMI-8226, 48 h
[16] = Antiproliferative activity against human OVCAR5 cells after 48 hrs by sulforhodamine B assay; assay type: functional; details: OVCAR-5, 48 h
[17] = Antiproliferative activity against human COLO205 cells after 48 hrs by sulforhodamine B assay; assay type: functional; details: COLO 205, 48 h
[18] = Antiproliferative activity against human HCC2998 cells after 48 hrs by sulforhodamine B assay; assay type: functional; details: HCC 2998, 48 h
[19] = Antiproliferative activity against human OVCAR4 cells after 48 hrs by sulforhodamine B assay; assay type: functional; details: OVCAR-4, 48 h
[20] = Antiproliferative activity against human SF268 cells after 48 hrs by sulforhodamine B assay; assay type: functional; details: SF-268, 48 h
[21] = Antiproliferative activity against human HL-60(TB) cells after 48 hrs by sulforhodamine B assay; assay type: functional; details: HL-60, 48 h
[22] = Cell cycle arrest in human MDA-MB-231 cells assessed as accumulation at G0/G1 phase at 5 uM after 48 hrs by propidium iodide staining based flow cytometric analysis (reference value: 67%); assay type: functional
[23] = Cytotoxicity against human MDA-MB-231 cells assessed as inhibition of cell viability at 5 uM after 48 hrs by MTT assay relative to control; assay type: functional; details: MDA-MB-231, 48 h
[24] = Antiproliferative activity against human NCI-H460 cells after 48 hrs by sulforhodamine B assay; assay type: functional; details: NCI-H460, 48 h
[25] = Antiproliferative activity against human Hs 578T cells after 48 hrs by sulforhodamine B assay; assay type: functional
[26] = Antiproliferative activity against human T47D cells after 48 hrs by sulforhodamine B assay; assay type: functional
[27] = Antiproliferative activity against human IGROV1 cells after 48 hrs by sulforhodamine B assay; assay type: functional; details: IGROV-1, 48 h
[28] = Cell cycle arrest in human MDA-MB-231 cells assessed as accumulation at G2/M phase after 96 to 120 hrs by propidium iodide staining based flow cytometric analysis; assay type: functional
[29] = Cell cycle arrest in human MDA-MB-231 cells assessed as accumulation at subG0/G1 phase at 10 uM after 48 hrs by propidium iodide staining based flow cytometric analysis (reference value: 8.8%); assay type: functional
[30] = Antiproliferative activity against human SNB19 cells after 48 hrs by sulforhodamine B assay; assay type: functional; details: SNB-19, 48 h
[31] = Cell cycle arrest in human MDA-MB-231 cells assessed as accumulation at subG0/G1 phase at 5 uM after 24 hrs by propidium iodide staining based flow cytometric analysis (reference value: 7.6%); assay type: functional
[32] = test system: MDA-MB-231; test: Effect on cell cycle regulatory protein in human MDA-MB-231 cells assessed as cdc2 level at 5 uM after 48 hrs by Western blot analysis relative to control; assay type: functional
[33] = Antiproliferative activity against human SN12C cells after 48 hrs by sulforhodamine B assay; assay type: functional
[34] = Antiproliferative activity against human OVCAR8 cells after 48 hrs by sulforhodamine B assay; assay type: functional; details: OVCAR-8, 48 h
[35] = Cell cycle arrest in human MDA-MB-231 cells assessed as accumulation at G0/G1 phase at 10 uM after 72 hrs by propidium iodide staining based flow cytometric analysis (reference value: 69.3%); assay type: functional
[36] = read-out: LC50 (the source's name)

SMILES: C=C1c2c(C)nn(-c3ccc(C#CCO[C@@H]4O[C@H](CO)[C@@H](O)[C@H](O)[C@H]4O)cc3)c2N(C)C23CC1C1(C)c4c(C)nn(-c5ccc(C#CCO[C@@H]6O[C@H](CO)[C@@H](O)[C@H](O)[C@H]6O)cc5)c4N(C)C(C)(CC12)C3 (some centres undefined)
- GI50 [1]: 3.28 µM
- TGI [1]: 100 µM
- CC50 [1, 36]: 100 µM
- GI50 [2]: 2.01 µM
- TGI [2]: 4.04 µM
- CC50 [2, 36]: 8.09 µM
- GI50 [3]: 1.22 µM
- TGI [3]: 2.86 µM
- CC50 [3, 36]: 6.71 µM
- GI50 [4]: 1.3 µM
- TGI [4]: 2.97 µM
- CC50 [4, 36]: 6.77 µM
- GI50 [5]: 1.72 µM
- TGI [5]: 3.11 µM
- CC50 [5, 36]: 5.61 µM
- Activity [6]: 1.6%
- GI50 [7]: 1.49 µM
- TGI [7]: 2.88 µM
- CC50 [7, 36]: 5.57 µM
- GI50 [8]: 2.83 µM
- TGI [8]: 10.1 µM
- CC50 [8, 36]: 31.8 µM
- fold change (FC) [9]: 1
- fold change (FC) [10]: 0.8
- GI50 [11]: 1.62 µM
- TGI [11]: 3.52 µM
- CC50 [11, 36]: 7.63 µM
- fold change (FC) [12]: 0.7
- Activity [13]: Active
- fold change (FC) [14]: 2
- GI50 [15]: 0.29 µM
- TGI [15]: 1.72 µM
- CC50 [15, 36]: 100 µM
- GI50 [16]: 1.78 µM
- TGI [16]: 3.54 µM
- CC50 [16, 36]: 7.05 µM
- GI50 [17]: 1.47 µM
- TGI [17]: 2.88 µM
- CC50 [17, 36]: 5.63 µM
- GI50 [18]: 1.57 µM
- TGI [18]: 3.15 µM
- CC50 [18, 36]: 6.32 µM
- GI50 [19]: 1.68 µM
- TGI [19]: 9.94 µM
- CC50 [19, 36]: 31.8 µM
- GI50 [20]: 1.75 µM
- TGI [20]: 3.57 µM
- CC50 [20, 36]: 7.27 µM
- GI50 [21]: 2.07 µM
- TGI [21]: 4.43 µM
- CC50 [21, 36]: 9.49 µM
- Activity [22]: 64.3%
- inhibition at 5 µM [23]: 68%
- GI50 [24]: 1.69 µM
- TGI [24]: 3.85 µM
- CC50 [24, 36]: 8.77 µM
- GI50 [25]: 0.47 µM
- TGI [25]: 9.85 µM
- CC50 [25, 36]: 100 µM
- GI50 [26]: 0.68 µM
- TGI [26]: 6.8 µM
- CC50 [26, 36]: 100 µM
- GI50 [27]: 1.56 µM
- TGI [27]: 3.95 µM
- CC50 [27, 36]: 10.1 µM
- Activity [28]: Active
- Activity [29]: 4.6%
- GI50 [30]: 1.66 µM
- TGI [30]: 3.95 µM
- CC50 [30, 36]: 9.37 µM
- Activity [31]: 7.1%
- fold change (FC) [32]: 1.5
- GI50 [33]: 1.38 µM
- TGI [33]: 3.72 µM
- CC50 [33, 36]: 9.99 µM
- GI50 [34]: 1 µM
- TGI [34]: 3.84 µM
- CC50 [34, 36]: 55.1 µM
- Activity [35]: 61.8%
